From article PMC3164524 (Biochemistry, 2011)
Square brackets hold non-standard residues; d marks the D form. Peptide text beside a SMILES is read from it. pY = N[C@@H](Cc1ccc(OP(=O)(O)O)cc1)C(=O)O

Biological target: T1, SHP-2 N-SH2 domain (Homo sapiens, UniProt Q06124)
T1 sequence (Q06124 1-106): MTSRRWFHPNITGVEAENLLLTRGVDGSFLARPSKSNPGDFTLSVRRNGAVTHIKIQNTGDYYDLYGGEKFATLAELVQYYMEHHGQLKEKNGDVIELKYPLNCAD
Assay: SPR competition assay against immobilized pYAQL peptide
Assay type: binding

IC50: 600 ± 100 nM
Compound: CC(C)C[C@H](NC(=O)[C@H](CCC(N)=O)NC(=O)[C@H](C)NC(=O)[C@H](Cc1ccc(OP(=O)(O)O)cc1)NC(=O)[C@H](CC(N)=O)NC(=O)[C@H](CC(C)C)NC(=O)[C@@H](N)CCCNC(=N)N)C(=O)N[C@@H](Cc1c[nH]c2ccccc12)C(=O)N[C@@H](Cc1c[nH]cn1)C(=O)N[C@@H](CCCNC(=N)N)C(N)=O [pYAQL] (H-RLN[pY]AQLWHR-NH2)
